Laboratory results reported in patent US12383571B2, “Method for enhancing tyrosinase inhibitory activity” (Jiangnan University, priority 2019, dated 2025).

System: tyrosinase
Test: Determination of tyrosinase activity by spectrophotometry (L-dopa substrate, 475 nm)
Type: biochemical
Details: single phenolic acid at 5 mM, other conditions as Example 1 (1.0 mg/mL protodioscin, 150° C. 30 min)
Description: A determining method of tyrosinase activity: spectrophotometry is employed, 2.8 ml of 2.5 mM L-dopa solution is taken as a substrate, 100 μL of treated inhibitor solution is taken, then 100 μL of 0.2 mg/mL tyrosinase solution is added for incubation at 30° C. for 15 min, and then a change in its light absorption value is measured at 475 nm, and taking tyrosinase activity without an inhibitor as 100%, a calculation formula is as follows: tyrosinase relative activity/%=(B2−B1)/(A2−A1)×100,
Where A1 and A2 represent light absorption values of a blank group at 0 min and 15 min, and B1 and B2 represent light absorption values of a sample at 0 min and 15 min. • 2.

tyrosinase relative activity (%)	SMILES
97.25%	O=C(O)c1cc(O)c(O)c(O)c1 [gallic acid]
80.69%	O=c1c(O)c(-c2ccc(O)c(O)c2)oc2cc(O)cc(O)c12 [quercetin]

Second part, the molecule before the results:

SMILES	tyrosinase relative activity (%)
COc1cc(-c2oc3cc(O)cc(O)c3c(=O)c2O)ccc1O [isorhamnetin]	82.52%
COc1cc(/C=C/C(=O)O)ccc1O [ferulic acid]	107.56%
O=C(O)C=Cc1ccccc1 [cinnamic acid]	102.32%
